Data on ten compounds can be found in patent publication US20080274892A1, “Novel Haloalkylsulfonanilide Derivative, Herbicide, and Method of Use Thereof” (priority 2005, published 2008).

Molecules are shown by their SMILES.

One data set concerns barnyard glass. Nature of the data set: Test Example 2: herbicidal efficacy on rice paddy weeds post-emergence. The class given is in vivo, Echinochloa crus-galli. The settings on record: dosage 1000 g/ha; post-emergence, one leaf stage; 21 days after treatment. In a few lines: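 Efficacy on paddy weeds was scored on a 0 to 4 growth-inhibition scale: 4 for 90%-100%, 3 for 70%-89%, 2 for 40%-69%, 1 for 1%-39% and 0 for 0%. Barnyard glass was grown in clay loam in 75 cm^2 pots under 5 cm of water in a hot house. It was compared with untreated pots 21 days after treatment.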

Data set [1] concerns false pimpernel. Described as above. The settings on record: dosage 1000 g/ha; post-emergence, one leaf stage; 21 days after treatment. The class given is in vivo, Lindernia pyxidaria.
Data set [2] has as its system false pimpernel. As to the kind of experiment: Test Example 1: herbicidal efficacy on rice paddy weeds pre-emergence. The format is in vivo, Lindernia pyxidaria. The note with it: dosage 1000 g/ha, 21 days.
The subject of data set [3] is bulrush. As to the kind of experiment: Test Example 4: low dosage test for rice paddy weeds. The note with it: 300 g/ha as an active ingredient; plants treated at the one leaf stage; 21 days after treatment; vs untreated control. The format is in vivo, Scirpus juncoides. In a few lines:
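Compound applied as a formulation at 300 g/ha to one-leaf bulrush grown in flooded clay loam (5 cm water) in a hot house. After 21 days, growth inhibition versus untreated plants rated on a 0–4 scale, with 4 meaning 90–100%.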

The subject of data set [4] is bulrush. As to the kind of experiment: Test Example 1: herbicidal efficacy on rice paddy weeds pre-emergence. The format is in vivo, Scirpus juncoides. The settings on record: dosage 1000 g/ha, 21 days.
For data set [5], the system named is bulrush. Nature of the data set: Test Example 2: herbicidal efficacy on rice paddy weeds post-emergence. The class given is in vivo, Scirpus juncoides. The note with it: dosage 1000 g/ha; post-emergence, one leaf stage; 21 days after treatment.
The subject of data set [6] is transplanted paddy rice plant and Bulrush. Nature of the data set: Test Example 5: selectivity between transplanted paddy rice plant and weeds. The format is in vivo. The settings on record: (highest dosage with no phytotoxicity to paddy rice)/(lowest dosage with effective level 4 on Bulrush); rice 3000-100 g/ha, Bulrush 300-10 g/ha; 21 days. In a few lines: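 Scoring ran 21 days after treatment in a hothouse on a 0–4 scale (4 = 90–100%, 3 = 70–89%, 2 = 40–69%, 1 = 1–39%, 0 = none) relative to untreated plants. Post-emergence bulrush received 10, 30, 100 and 300 g/ha active ingredient. Transplanted rice received 100, 300, 1000 and 3000 g/ha to assess crop injury.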

The subject of data set [7] is paddy rice plant (cultivar: Nihonbare). As to the kind of experiment: Test Example 3: phytotoxicity test for transplanted paddy rice plant. The settings on record: dosage 1000 g/ha; transplanted rice, treated 5 days after transplantation; 21 days after treatment. The class given is in vivo. In a few lines:
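Clay loam soil was placed in a 75 cm^2 plastic pot and flooded to a water depth of 5 cm. Two Nihonbare paddy rice plants at the two-leaf stage were transplanted 1 cm deep and grown in a hot house. After treatment, pots stayed in the hot house for 21 days, and phytotoxicity was then graded against an untreated control.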

For the compound `CCCC1(CC)CN(Cc2ccccc2NS(=O)(=O)C(F)(F)F)C(=O)O1` (centres unmarked) [1-130], the “Burnyard grass post (herbicidal efficacy grade)” value (“Burnyard grass post” for short) with barnyard glass was 4 (90%-100% of herbicidal efficacy or phytotoxicity). Also, the “False pimpernel post (herbicidal efficacy grade)” value (“False pimpernel post” for short) with false pimpernel [1] was 4 (90%-100% of herbicidal efficacy or phytotoxicity). For the same compound, the “False pimpernel pre (herbicidal efficacy grade)” value (from here on “False pimpernel pre”) in the data set with false pimpernel [2] is 4 (90%-100% of herbicidal efficacy or phytotoxicity). Also, in the data set on bulrush [3], the “Herbicide effect to Bulrush” value is 4 (90%-100% of herbicidal efficacy or phytotoxicity). The “Bulrush pre (herbicidal efficacy grade)” value with bulrush [4] is 4 (90%-100% of herbicidal efficacy or phytotoxicity). For the same compound, the “Bulrush post (herbicidal efficacy grade)” value in the data set on bulrush [5] is reported as 4 (90%-100% of herbicidal efficacy or phytotoxicity). For the same compound, in data set [6], the “Selective Index” value amounted to 10. In addition, the “Phytotoxicity to paddy rice” value in data set [7] is given as 1 (1%-39% of herbicidal efficacy or phytotoxicity).
With `CC(C)COC(=O)N(c1ccccc1CN1CC2(CCC2)OC1=O)S(=O)(=O)C(F)(F)F` [1-86], the “Burnyard grass post” value in the data set on barnyard glass is 4 (90%-100% of herbicidal efficacy or phytotoxicity). In addition, in the data set on false pimpernel [1], the “False pimpernel post” value is reported as 4 (90%-100% of herbicidal efficacy or phytotoxicity). For the same compound, the “False pimpernel pre” value in the data set on false pimpernel [2] is 4 (90%-100% of herbicidal efficacy or phytotoxicity). In addition, the “Herbicide effect to Bulrush” value in the data set on bulrush [3] is 4 (90%-100% of herbicidal efficacy or phytotoxicity). In addition, the “Bulrush pre (herbicidal efficacy grade)” value in the data set on bulrush [4] is reported as 4 (90%-100% of herbicidal efficacy or phytotoxicity). The “Bulrush post (herbicidal efficacy grade)” value in the data set on bulrush [5] is reported as 4 (90%-100% of herbicidal efficacy or phytotoxicity). Also, in data set [6], the “Selective Index” value amounted to 10. For the same compound, in data set [7], the “Phytotoxicity to paddy rice” value is listed as 1 (1%-39% of herbicidal efficacy or phytotoxicity).
Consider `CC1COC(=O)N1Cc1ccccc1NS(=O)(=O)C(F)(F)F` (centres unmarked) [1-3], for which the “Burnyard grass post” value in the data set on barnyard glass was 4 (90%-100% of herbicidal efficacy or phytotoxicity). The “False pimpernel post” value in the data set on false pimpernel [1] was 4 (90%-100% of herbicidal efficacy or phytotoxicity). For the same compound, in the data set on false pimpernel [2], the “False pimpernel pre” value is 4 (90%-100% of herbicidal efficacy or phytotoxicity). In addition, the “Herbicide effect to Bulrush” value in the data set on bulrush [3] is given as 4 (90%-100% of herbicidal efficacy or phytotoxicity). For the same compound, the “Bulrush pre (herbicidal efficacy grade)” value with bulrush [4] is reported as 4 (90%-100% of herbicidal efficacy or phytotoxicity). In addition, the “Bulrush post (herbicidal efficacy grade)” value with bulrush [5] is given as 4 (90%-100% of herbicidal efficacy or phytotoxicity). Further, in data set [6], the “Selective Index” value is on record as 3.3. In addition, in data set [7], the “Phytotoxicity to paddy rice” value was 4 (90%-100% of herbicidal efficacy or phytotoxicity).
As to `CC1(C2(C)CN(Cc3ccccc3NS(=O)(=O)C(F)(F)F)C(=O)O2)CC1` (centres unmarked) [1-167], the “Burnyard grass post” value in the data set on barnyard glass is 4 (90%-100% of herbicidal efficacy or phytotoxicity). Moreover, in the data set with false pimpernel [1], the “False pimpernel post” value is on record as 4 (90%-100% of herbicidal efficacy or phytotoxicity). For the same compound, in the data set with false pimpernel [2], the “False pimpernel pre” value was 4 (90%-100% of herbicidal efficacy or phytotoxicity). In the data set on bulrush [3], the “Herbicide effect to Bulrush” value is 4 (90%-100% of herbicidal efficacy or phytotoxicity). In addition, in the data set on bulrush [4], the “Bulrush pre (herbicidal efficacy grade)” value is on record as 4 (90%-100% of herbicidal efficacy or phytotoxicity). The “Bulrush post (herbicidal efficacy grade)” value in the data set with bulrush [5] was 4 (90%-100% of herbicidal efficacy or phytotoxicity). In data set [6], the “Selective Index” value is given as “≧10”. The “Phytotoxicity to paddy rice” value in data set [7] is 1 (1%-39% of herbicidal efficacy or phytotoxicity).
As for `COC(=O)N(c1ccccc1CN1CC(C)(C)OC1=O)S(=O)(=O)C(F)(F)F` [1-64], the “Burnyard grass post” value with barnyard glass is 4 (90%-100% of herbicidal efficacy or phytotoxicity). The “False pimpernel post” value with false pimpernel [1] is listed as 4 (90%-100% of herbicidal efficacy or phytotoxicity). Besides, in the data set with false pimpernel [2], the “False pimpernel pre” value is recorded as 4 (90%-100% of herbicidal efficacy or phytotoxicity). Moreover, in the data set on bulrush [3], the “Herbicide effect to Bulrush” value is 4 (90%-100% of herbicidal efficacy or phytotoxicity). The “Bulrush pre (herbicidal efficacy grade)” value in the data set with bulrush [4] was 4 (90%-100% of herbicidal efficacy or phytotoxicity). In addition, the “Bulrush post (herbicidal efficacy grade)” value with bulrush [5] was 4 (90%-100% of herbicidal efficacy or phytotoxicity). Also, the “Selective Index” value in data set [6] was “≧30”. The “Phytotoxicity to paddy rice” value in data set [7] is on record as 2 (40%-69% of herbicidal efficacy or phytotoxicity).
`CCCOC(=O)N(c1ccccc1CN1CC(C)(C2CC2)OC1=O)S(=O)(=O)C(F)(F)F` (racemic) [1-112]: in the data set with barnyard glass, the “Burnyard grass post” value is 4 (90%-100% of herbicidal efficacy or phytotoxicity). The “False pimpernel post” value in the data set on false pimpernel [1] is recorded as 4 (90%-100% of herbicidal efficacy or phytotoxicity). In addition, the “False pimpernel pre” value in the data set on false pimpernel [2] is recorded as 4 (90%-100% of herbicidal efficacy or phytotoxicity). The “Herbicide effect to Bulrush” value in the data set on bulrush [3] is 4 (90%-100% of herbicidal efficacy or phytotoxicity). Besides, in the data set with bulrush [4], the “Bulrush pre (herbicidal efficacy grade)” value is recorded as 4 (90%-100% of herbicidal efficacy or phytotoxicity). For the same compound, the “Bulrush post (herbicidal efficacy grade)” value with bulrush [5] is recorded as 4 (90%-100% of herbicidal efficacy or phytotoxicity). Further, the “Selective Index” value in data set [6] was 30. In data set [7], the “Phytotoxicity to paddy rice” value was 2 (40%-69% of herbicidal efficacy or phytotoxicity).
Regarding `CC(C)C1CN(Cc2ccccc2NS(=O)(=O)C(F)(F)F)C(=O)O1` (centres unmarked) [1-31], the “Burnyard grass post” value with barnyard glass is listed as 4 (90%-100% of herbicidal efficacy or phytotoxicity). In addition, the “False pimpernel post” value in the data set on false pimpernel [1] is 4 (90%-100% of herbicidal efficacy or phytotoxicity). Besides, in the data set with false pimpernel [2], the “False pimpernel pre” value is given as 4 (90%-100% of herbicidal efficacy or phytotoxicity). Besides, the “Herbicide effect to Bulrush” value in the data set on bulrush [3] was 4 (90%-100% of herbicidal efficacy or phytotoxicity). Further, in the data set with bulrush [4], the “Bulrush pre (herbicidal efficacy grade)” value was 4 (90%-100% of herbicidal efficacy or phytotoxicity). In addition, in the data set with bulrush [5], the “Bulrush post (herbicidal efficacy grade)” value was 4 (90%-100% of herbicidal efficacy or phytotoxicity). In addition, the “Selective Index” value in data set [6] is “≧10”. In addition, the “Phytotoxicity to paddy rice” value in data set [7] is listed as 1 (1%-39% of herbicidal efficacy or phytotoxicity).
Turning to `CC(C)COC(=O)N(c1ccccc1CN1CC(C)(C)OC1=S)S(=O)(=O)C(F)(F)F` [1-50], the “Burnyard grass post” value in the data set on barnyard glass is 4 (90%-100% of herbicidal efficacy or phytotoxicity). For the same compound, in the data set with false pimpernel [1], the “False pimpernel post” value is 4 (90%-100% of herbicidal efficacy or phytotoxicity). In addition, in the data set with false pimpernel [2], the “False pimpernel pre” value is given as 4 (90%-100% of herbicidal efficacy or phytotoxicity). The “Herbicide effect to Bulrush” value in the data set on bulrush [3] is listed as 4 (90%-100% of herbicidal efficacy or phytotoxicity). In addition, the “Bulrush pre (herbicidal efficacy grade)” value in the data set on bulrush [4] was 4 (90%-100% of herbicidal efficacy or phytotoxicity). Besides, the “Bulrush post (herbicidal efficacy grade)” value in the data set on bulrush [5] was 4 (90%-100% of herbicidal efficacy or phytotoxicity). Moreover, the “Selective Index” value in data set [6] was 10. In addition, the “Phytotoxicity to paddy rice” value in data set [7] is 2 (40%-69% of herbicidal efficacy or phytotoxicity).
Turning to `COCCOC(=O)N(c1ccccc1CN1CC(C)(C2CC2)OC1=O)S(=O)(=O)C(F)(F)F` (racemic) [1-119], in the data set with barnyard glass, the “Burnyard grass post” value is reported as 4 (90%-100% of herbicidal efficacy or phytotoxicity). In addition, the “False pimpernel post” value with false pimpernel [1] was 4 (90%-100% of herbicidal efficacy or phytotoxicity). Moreover, the “False pimpernel pre” value in the data set with false pimpernel [2] is 4 (90%-100% of herbicidal efficacy or phytotoxicity). For the same compound, in the data set on bulrush [3], the “Herbicide effect to Bulrush” value is 4 (90%-100% of herbicidal efficacy or phytotoxicity). Also, the “Bulrush pre (herbicidal efficacy grade)” value in the data set with bulrush [4] was 4 (90%-100% of herbicidal efficacy or phytotoxicity). In the data set with bulrush [5], the “Bulrush post (herbicidal efficacy grade)” value is recorded as 4 (90%-100% of herbicidal efficacy or phytotoxicity). Besides, the “Selective Index” value in data set [6] is 30. Also, the “Phytotoxicity to paddy rice” value in data set [7] was 1 (1%-39% of herbicidal efficacy or phytotoxicity).
Regarding `CCC1(C)CN(Cc2ccccc2N(C(=O)OCC(C)C)S(=O)(=O)C(F)(F)F)C(=O)O1` (racemic) [1-60], the “Burnyard grass post” value in the data set on barnyard glass was 4 (90%-100% of herbicidal efficacy or phytotoxicity). Besides, in the data set on false pimpernel [1], the “False pimpernel post” value is reported as 4 (90%-100% of herbicidal efficacy or phytotoxicity). For the same compound, the “False pimpernel pre” value with false pimpernel [2] was 4 (90%-100% of herbicidal efficacy or phytotoxicity). The “Herbicide effect to Bulrush” value in the data set with bulrush [3] is 4 (90%-100% of herbicidal efficacy or phytotoxicity). Also, the “Bulrush pre (herbicidal efficacy grade)” value in the data set on bulrush [4] is reported as 4 (90%-100% of herbicidal efficacy or phytotoxicity). Also, the “Bulrush post (herbicidal efficacy grade)” value in the data set with bulrush [5] is 4 (90%-100% of herbicidal efficacy or phytotoxicity). Also, in data set [6], the “Selective Index” value is recorded as “≧30”. Further, the “Phytotoxicity to paddy rice” value in data set [7] is reported as 3 (70%-89% of herbicidal efficacy or phytotoxicity).
